What all share (test): NCI tumour cell line growth inhibition, 48 h
Test [1] relates to COLO 205 colon.
For test [2], the system named is HT29 colon.
Test [3] has as its system IGROV1 ovarian.
Test [4] deals with KM12 colon.
Test [5] relates to LOX IMVI melanoma.
For test [6], the system named is MALME-3M melanoma.
In test [7] the test system is OVCAR-8 ovarian.
The subject of test [8] is SF-295 CNS.
In test [9] the test system is SK-OV-3 ovarian.
Test [10] concerns U251 CNS.

Values joined by “and” are separate entries in the source; they are usually repeats but may differ in a detail not shown here. Equal entries are not always repeated.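 Briefly, cells in 96-well plates were exposed to five compound concentrations for 48 h, and endpoints were estimated by linear interpolation. GI50 = concentration required for 50% inhibition of growth. Definition used: TGI = concentration required for complete inhibition of growth.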

In the case of `COc1cccc2c1C(=O)c1c(O)c3c(c(O)c1C2=O)C[C@@](O)(C(=O)CO)C[C@@H]3O[C@H]1C[C@H](N)[C@@H](O)[C@H](C)O1`, the GI50 in test [1] is 0.313 µM; in [3], 0.175 µM; in [4] it was 0.502 µM; in [5] it was 0.0826 µM; in [6], 0.145 µM; in test [7], 0.256 µM. The GI50 in test [8] is 0.158 µM; in test [9] it was 0.318 µM. Moreover, the TGI in test [1] was determined as 1.23 µM; in test [2], 7.75 µM; in test [3], 21.2 µM; in [4], 18.2 µM; in test [5], 2.57 µM; in test [6], 0.718 µM. The TGI in test [7] came to 19.5 µM; in test [8], 1.54 µM; in [9], 31.6 µM; in test [10] it was 16.4 µM.
As to `O=C1C=CC[C@H](/C=C/c2ccccc2)O1`, the GI50 is 2.03 µM in test [1]; 1.88 µM in test [2]; 5.44 µM in test [3]; 4.06 µM in test [4]; 1.7 µM in test [5]; 18.5 µM in test [6]. Moreover, the GI50 was 6.03 µM in test [7], 2.54 µM in test [8], 5.54 µM in test [9] and 1.88 µM in test [10]. Also, the TGI in test [1] was 20.2 µM; in test [2], 23.9 µM; in [3], 26.5 µM; in test [4], 17.8 µM; in test [5], 7.93 µM; in test [6], > 100 µM. Further, the TGI in test [7] is > 100 µM; in test [8] it was > 40.9 µM; in test [9] it was 99.4 µM; in test [10], 13.1 µM.
In the case of `O=c1nc(NC(c2ccccc2)(c2ccccc2)c2ccccc2)ccn1CCNCCn1ccc(NC(c2ccccc2)(c2ccccc2)c2ccccc2)nc1=O`, the TGI was determined as 35.6 µM in test [1]; 24.5 µM in test [2]; 56.2 µM in test [3]; 11.9 µM in [4]; 7.86 µM in [5]; 29.3 µM in [6]. In addition, the TGI was 38.7 µM in test [7], 27.3 µM in [8], 46.1 µM in [9] and 18.8 µM in test [10].
Turning to `CN(C)CCNC(=O)c1cccc2[nH]c(-c3cccnc3)nc12`, the TGI in [1] was 32.5 µM; in test [2] it was 92.8 µM; in test [3], > 100 µM; in test [4] it was > 100 µM; in [5], 48.7 µM; in [7], 44.1 µM. Moreover, the TGI in test [8] was > 100 µM; in test [9], 80.3 µM; in test [10] it was 74.7 µM.
As to `Cc1c(C(=O)CC(=O)C(=O)Nc2ccc(Cl)cc2)[n+](=O)c2ccccc2n1[O-]`, the TGI in test [1], in test [3], in test [4], in [6], in test [7] and in [8] was > 100 µM each time. Moreover, the TGI in test [9] and in [10] was > 100 µM throughout.
Take `O=Cc1ccccc1B(O)O`: the TGI in test [1] is 40.3 µM; in [2], > 100 µM; in test [3], > 100 µM; in test [4] it was > 100 µM; in test [5] it was > 100 µM; in [7] it was > 100 µM. The TGI in [8], in [9] and in test [10] was > 100 µM throughout.
In the case of `CCCC/C=C1\CCC(C)(CN(C)C)C1=O` (stereo not given), the TGI in test [2], in test [3], in test [4], in test [6], in test [7] and in test [8] was > 100 µM throughout. The TGI in [10] is > 100 µM.
As to `S=c1ssc(Oc2ccccc2)c1Cl`, the GI50 in test [1] is 23 µM; in test [2] it was 1.37 µM; in [4] it was 13.2 µM; in [5] it was 5.61 µM; in test [7], 29.5 µM; in [8], 15.1 µM. Also, the GI50 in test [9] was 39.4 µM; in test [10] it was 7.06 µM. In addition, the TGI was 47.5 µM in test [1]; > 100 µM in [2]; 26 µM in test [4]; 22.7 µM in test [5]; 62.4 µM in test [7]; 28.3 µM in [8]. The TGI in test [9] was > 100 µM; in [10] it was 26.4 µM.
`O=C1CCCC(=O)N1CCc1c[nH]c2ccccc12`: the TGI in test [2], in test [3], in test [4], in [6], in [7] and in test [8] was > 100 µM in each case. For the same compound, the TGI in test [9] and in [10] was > 100 µM throughout.
As for `Fc1ccccc1C1SCc2nc3ccccc3n21` (stereo not given), the TGI in test [1], in [2], in test [3], in test [4], in [6] and in test [7] was > 100 µM each time. Besides, the TGI in [8] and in test [9] was > 100 µM throughout.
On to `Cc1cc(NS(=O)(=O)c2ccc(NC(=O)c3ccc(Cl)c4c(Nc5ccc(S(=O)(=O)N=C(N)N)cc5)c5ccccc5nc34)cc2)no1`, for which the TGI is > 100 µM in [2]; > 100 µM in [4]; 98.7 µM in [5]; > 100 µM in [6]; > 100 µM in [7]; > 100 µM in test [8]. The TGI is > 100 µM in [9] and 38.9 µM in test [10].
For `O=C(O)CCSC(=O)Nc1ccccc1F`, the TGI in [1], in test [2], in test [4], in test [5] and in test [10] was > 100 µM in each case.
In the case of `CC[C@@]1(OC(=O)CN)C(=O)OCc2c1cc1n(c2=O)Cc2cc3c(N)cccc3nc2-1`, the GI50 is 0.392 µM in [1]; 0.0346 µM in [2]; 0.115 µM in test [3]; 0.158 µM in test [4]; < 0.01 µM in [5]; 0.0473 µM in test [6]. The GI50 in [7], in test [8] and in test [10] was < 0.01 µM each time. The TGI in test [1] was 2.66 µM; in [2], > 100 µM; in test [4], 1.92 µM; in test [5] it was 0.0486 µM; in test [6] it was 1.75 µM; in test [7] it was 0.153 µM. The values for the TGI in test [8] and in test [10] were 0.0497 µM and 0.405 µM, respectively.
For the compound `CN(C)C=[N+]=[N-]`, the TGI in test [1], in test [2], in test [3], in test [4], in test [6] and in test [7] was > 100 µM in each case. Further, the TGI in test [8], in test [9] and in [10] was > 100 µM in each case.
With `COc1ccc(/C(=N\O)c2cc(C)c(OC)c(C)c2)cc1O`, the GI50 in test [2] is 0.0446 µM; in test [3], 0.0134 µM; in test [4], < 0.01 µM; in [5], 0.0189 µM; in [6], < 0.01 µM; in test [7] it was 0.0352 µM. Further, the results for the GI50 in test [8], in test [9] and in test [10] were < 0.01 µM, 0.0166 µM and < 0.01 µM, respectively. Further, the TGI in test [2] was 11.8 µM; in [3] it was > 100 µM; in [4] it was > 100 µM; in test [5] it was > 100 µM; in [6], > 100 µM; in [7], 71.6 µM. Further, the TGI in test [8], in [9] and in test [10] was > 100 µM each time.
In the case of `O=C(NCCCCCCNC(=O)OCCSCCn1cc(C(=O)NC(=O)OCc2ccccc2)c(=O)[nH]c1=O)OCCSCCn1cc(C(=O)NC(=O)OCc2ccccc2)c(=O)[nH]c1=O`, the TGI in [1], in test [2], in [3], in test [4], in [5] and in test [6] was > 100 µM each time. Further, the TGI in test [7], in test [8] and in test [10] was > 100 µM throughout.
As for `C[C@]12CCC(=O)C(O)=C1CC[C@@H]1C2CC[C@]2(C)Nc3c(cnn3-c3ccccc3)CC12` (stereo not given in full), the TGI in test [2], in test [3], in test [4], in test [6], in [7] and in test [8] was > 100 µM each time. For the same compound, the TGI in test [9] and in [10] was > 100 µM each time.
`C/C=C1/CCC2c3[nH]c4ccccc4c3CCN2C1` (stereo not given): the TGI in test [2] was > 100 µM; in test [3] it was > 100 µM; in [4], > 100 µM; in test [6], 67.7 µM; in test [7], > 100 µM; in test [8], > 100 µM. For the same compound, the TGI in test [9] and in test [10] was > 100 µM in each case.
On to `C=C1C(=O)OC2C=C(CCC(C)=O)C(C)C(OC(C)=O)CC12` (stereo not given), for which the TGI turned out to be 27.1 µM in [2]; 43.9 µM in [3]; 30.5 µM in test [4]; 3.34 µM in [5]; 25.2 µM in test [6]; 36 µM in [7]. Also, the TGI in test [8] worked out at 40.2 µM; in test [10], 31.1 µM.
With `CCCCCCCCCCC(C(O)c1ccccc1)N1CCCCC1` (stereo not given), the GI50 in test [1] is 1.54 µM; in test [2] it was 1.72 µM; in [3] it was 1.5 µM; in test [4] it was 1.29 µM; in test [5], 1.67 µM; in [7], 3.29 µM. Besides, the figures for the GI50 in test [8], in test [9] and in test [10] were 1.83 µM, 2.59 µM and 1.74 µM, respectively. Further, the TGI in [1] came out at 2.93 µM; in test [2] it was 4.41 µM; in test [3], 3.15 µM; in test [4], 2.72 µM; in test [5], 3.03 µM; in [7], 13 µM. Besides, the TGI in [8] amounted to 3.23 µM; in test [9], 7.82 µM; in [10], 3.46 µM.
As for `Oc1[nH]c2c(Br)cccc2c1C1=Nc2ccccc2/C1=N/OCCN1CCCC1`, the GI50 in [1] is 0.524 µM; in test [2] it was 0.561 µM; in test [3], 0.469 µM; in [4], 0.708 µM and 0.501 µM; in test [5], 0.626 µM; in test [6] it was 1.16 µM. Moreover, the results for the GI50 in test [7], in test [8] and in [10] were 0.792 µM, 0.638 µM and 1.09 µM, respectively. For the same compound, the TGI was 4.81 µM in test [1]; 6.6 µM in test [2]; 2.98 µM in test [3]; > 100 µM in test [4]; 2.45 µM in test [5]; 4.84 µM in test [6]. Moreover, the TGI worked out at 3.69 µM in [8] and 2.77 µM in [10].
With `O=[N+]([O-])c1cc(C2SCc3nc4ccccc4n32)ccc1Cl` (stereo not given), the TGI in test [1] was 46.6 µM; in test [2], > 100 µM; in test [3], > 100 µM; in test [4], 31.3 µM; in [6], > 100 µM; in test [7], > 100 µM. Moreover, the TGI in test [8] was > 100 µM; in test [9], 66.2 µM; in test [10], > 100 µM.
Regarding `Nc1c([N+](=O)[O-])cc2c3c(cccc13)CC2`, the TGI in [1], in test [2], in test [3], in test [4], in test [5] and in test [7] was > 100 µM each time. Further, the TGI in [8], in test [9] and in test [10] was > 100 µM in each case.
As to `O=C1C2C=CC(C2)C(c2ccc(O)cc2)N1O` (stereo not given), the TGI in test [1], in test [2], in test [3], in test [4], in test [6] and in test [7] was > 100 µM throughout. Further, the TGI in test [8], in test [9] and in test [10] was > 100 µM each time.
